Measurements reported in the NIST ThermoML archive (doi:10.1016/j.fluid.2014.11.024).

Conditions: 101.33 kPa, Liquid; for viscosity: Falling or rolling sphere viscometry; for speed of sound: Sing-around technique in a fixed-path interferometer; for mass density: Vibrating tube method

CC(=O)[O-].C[NH+]1CCCC1=O [N-methyl-2-oxopyrrolidinium acetate]
Conditions | mass density [kg/m3] | speed of sound [m/s] | viscosity [mPa·s]
293.15 K | 1050.71 | 1491.5 | 2.933
298.15 K | 1046.06 | 1473.5 | 2.622
303.15 K | 1041.42 | 1455.1 | 2.364
308.15 K | 1036.77 | 1436.9 | 2.144
313.15 K | 1032.12 | 1418.7 | 1.959
318.15 K | 1027.46 | 1400.6 | 1.799
323.15 K | 1022.79 | 1382.6 | 1.66
328.15 K | 1018.12 | 1364.7 | 1.54
333.15 K | 1013.44 | 1346.9 | 1.435
338.15 K | 1008.75 | 1329.2 | 1.344
343.15 K | 1004.05 | 1311.5 | 1.264

CCCC(=O)[O-].C[NH+]1CCCC1=O [N-methyl-2-oxopyrrolidinium butanoate]
Conditions | mass density [kg/m3] | speed of sound [m/s] | viscosity [mPa·s]
293.15 K | 1010.56 | 1435.6 | 3.996
298.15 K | 1006.11 | 1418 | 3.526
303.15 K | 1001.65 | 1400.1 | 3.136
308.15 K | 997.18 | 1382.2 | 2.809
313.15 K | 992.71 | 1364.4 | 2.531
318.15 K | 988.24 | 1346.7 | 2.295
323.15 K | 983.74 | 1328.5 | 2.093
328.15 K | 979.25 | 1311 | 1.918
333.15 K | 974.76 | 1293.5 | 1.771
338.15 K | 970.26 | 1276.3 | 1.639
343.15 K | 965.75 | 1259.1 | 1.527

C[NH+]1CCCC1=O.O=C[O-] [N-methyl-2-oxopyrrolidinium formate]
Conditions | mass density [kg/m3] | speed of sound [m/s] | viscosity [mPa·s]
293.15 K | 1076.38 | 1496 | 2.451
298.15 K | 1071.66 | 1478.3 | 2.217
303.15 K | 1066.93 | 1460.4 | 2.02
308.15 K | 1062.2 | 1442.5 | 1.85
313.15 K | 1057.45 | 1424.8 | 1.705
318.15 K | 1052.71 | 1407.2 | 1.58
323.15 K | 1047.96 | 1389.7 | 1.472
328.15 K | 1043.2 | 1372.2 | 1.377
333.15 K | 1038.43 | 1354.8 | 1.295
338.15 K | 1033.66 | 1337.6 | 1.223
343.15 K | 1028.88 | 1320.5 | 1.159

CCCCCC(=O)[O-].C[NH+]1CCCC1=O [N-methyl-2-oxopyrrolidinium hexanoate]
Conditions | mass density [kg/m3] | speed of sound [m/s] | viscosity [mPa·s]
293.15 K | 983.01 | 1431.4 | 5.211
298.15 K | 978.81 | 1414.2 | 4.549
303.15 K | 974.6 | 1396.7 | 3.998
308.15 K | 970.39 | 1379.3 | 3.543
313.15 K | 966.18 | 1362 | 3.163
318.15 K | 961.96 | 1344.8 | 2.843
323.15 K | 957.74 | 1327.6 | 2.57
328.15 K | 953.51 | 1310.6 | 2.336
333.15 K | 949.28 | 1293.7 | 2.135
338.15 K | 945.04 | 1276.8 | 1.96
343.15 K | 940.79 | 1260.2 | 1.808

CCCCC(=O)[O-].C[NH+]1CCCC1=O [N-methyl-2-oxopyrrolidinium pentanoate]
Conditions | mass density [kg/m3] | speed of sound [m/s] | viscosity [mPa·s]
293.15 K | 994.31 | 1427.7 | 4.448
298.15 K | 990.01 | 1410.5 | 3.91
303.15 K | 985.7 | 1393 | 3.465
308.15 K | 981.38 | 1375.4 | 3.093
313.15 K | 977.06 | 1358 | 2.779
318.15 K | 972.73 | 1340.7 | 2.513
323.15 K | 968.39 | 1323 | 2.284
328.15 K | 964.05 | 1305.7 | 2.087
333.15 K | 959.71 | 1288.7 | 1.917
338.15 K | 955.36 | 1271.8 | 1.769
343.15 K | 951.01 | 1255 | 1.64

CCC(=O)[O-].C[NH+]1CCCC1=O [N-methyl-2-oxopyrrolidinium propionate]
Conditions | mass density [kg/m3] | speed of sound [m/s] | viscosity [mPa·s]
293.15 K | 1032.46 | 1460.3 | 3.136
298.15 K | 1027.86 | 1442.6 | 2.801
303.15 K | 1023.32 | 1424.5 | 2.518
308.15 K | 1018.74 | 1406.4 | 2.28
313.15 K | 1014.16 | 1388.4 | 2.075
318.15 K | 1009.56 | 1370.6 | 1.9
323.15 K | 1004.97 | 1352.8 | 1.75
328.15 K | 1000.36 | 1335.1 | 1.619
333.15 K | 995.75 | 1317.5 | 1.506
338.15 K | 991.12 | 1300 | 1.407
343.15 K | 986.49 | 1282.6 | 1.32
